Consider 16 compounds from patent publication US12281119B2, “Imidazo[2,1-f][1,2,4]triazin-4-amine derivatives as TLR7 agonist” (BEIGENE, LTD., priority 2019, dated 2025).

This assay has as its target T1, human TLR7 (Homo sapiens, UniProt Q9NYK1).
T1 sequence (Q9NYK1 27-1049): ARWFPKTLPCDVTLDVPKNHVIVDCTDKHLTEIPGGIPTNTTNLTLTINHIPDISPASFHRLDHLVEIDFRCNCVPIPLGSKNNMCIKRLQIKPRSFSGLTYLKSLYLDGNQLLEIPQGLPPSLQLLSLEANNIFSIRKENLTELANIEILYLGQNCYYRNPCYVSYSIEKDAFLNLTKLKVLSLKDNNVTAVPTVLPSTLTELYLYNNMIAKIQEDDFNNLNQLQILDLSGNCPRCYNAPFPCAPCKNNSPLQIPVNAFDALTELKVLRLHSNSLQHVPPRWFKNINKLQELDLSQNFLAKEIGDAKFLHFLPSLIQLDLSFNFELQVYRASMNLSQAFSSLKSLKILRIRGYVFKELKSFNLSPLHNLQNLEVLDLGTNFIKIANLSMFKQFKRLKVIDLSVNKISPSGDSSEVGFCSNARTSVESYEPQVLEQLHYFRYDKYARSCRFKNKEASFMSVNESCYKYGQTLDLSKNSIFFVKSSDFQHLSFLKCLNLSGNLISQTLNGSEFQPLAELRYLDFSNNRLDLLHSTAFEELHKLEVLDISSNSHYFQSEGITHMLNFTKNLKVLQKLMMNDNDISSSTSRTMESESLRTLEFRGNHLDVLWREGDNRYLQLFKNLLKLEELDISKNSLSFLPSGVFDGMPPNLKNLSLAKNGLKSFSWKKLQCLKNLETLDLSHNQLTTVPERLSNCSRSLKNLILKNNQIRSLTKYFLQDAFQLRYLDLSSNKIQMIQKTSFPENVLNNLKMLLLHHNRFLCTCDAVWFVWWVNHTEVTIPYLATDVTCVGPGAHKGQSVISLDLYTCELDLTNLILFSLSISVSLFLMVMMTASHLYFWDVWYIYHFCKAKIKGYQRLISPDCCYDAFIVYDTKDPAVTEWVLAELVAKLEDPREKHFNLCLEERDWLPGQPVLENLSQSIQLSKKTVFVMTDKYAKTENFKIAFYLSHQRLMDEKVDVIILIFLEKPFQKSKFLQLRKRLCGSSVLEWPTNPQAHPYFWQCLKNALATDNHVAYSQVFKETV
Description: HEK293-Blue hTLR7 reporter assay (QUANTI-BLUE, SEAP readout). It counts as cell-based. The conditions noted are these: HEK-Blue-hTLR7 cells, 24 hrs. On the set-up: host or cells: HEK293 (HEK-Blue-hTLR7). Here is the method:
HEK293-Blue hTLR7 Reporter Assay:
HEK-Blue-hTLR7 cell line (Invivogen, Cat. No. hkb-htlr7) was designed so that the expression of the secreted embryonic alkaline phosphatase (SEAP) was induced by activating NF-κ and AP-1 via stimulating human TLR7 with TLR7 agonists.
HEK-Blue-hTLR7 cells were seeded at a density of 4×10^4 cells/well in a volume of 180 μL in a 96-well plate in DMEM (Cat. No. 11965-092) supplemented with 10% (v/v) heat-inactivated fetal bovine serum (FBS) (Gibco, 10099-1441), 100 U/ml penicillin and 100 μg/ml streptomycin (Gibco, 15140122) containing […], […] and 10% (v/v) heat-inactivated fetal bovine serum. The cells were settled for 5 hrs, then treated with increasing amounts of tested compounds at 37° C. for 24 hrs. Then 20 μL of the supernatant from each well was incubated with 180 uL Quanti-blue substrate solution at 37° C. for 10-30 mins before the activity of the SEAP was determined at 620-655 nm using a spectrophotometer. The EC50 value for each compound was calculated with GraphPad Prism software using the sigmoidal dose-response function.
For orientation: A reporter such as luciferase makes a cellular process visible.

Where only a bound is given, the exact number is not on record here.

As to `CCCCOc1nc(N)c2ncc(Cc3ccc(OCCCNC)cc3)n2n1` [Compound A63, 2-butoxy-7-(4-(3-(methylamino)propoxy)benzyl)imidazo[2,1-f][1,2,4]triazin-4-amine], the EC50 (QUANTI-BLUE assay (A1-A76)) is 996 nM.
Turning to `Nc1nc(NCc2ccco2)nn2c(Cc3ccc(CN4CCCC4)cc3)cnc12` [Compound A64, N^2-(furan-2-ylmethyl)-7-(4-(pyrrolidin-1-ylmethyl)benzyl)imidazo[2,1-f][1,2,4]triazine-2,4-diamine], for the setting “QUANTI-BLUE assay (A1-A76)”, a half-maximal response (EC50) required 4000 nM.
Consider `Nc1nc(O)nn2c(Cc3ccc(CN4CCCC4)cc3)cnc12` [Compound A65, 4-amino-7-(4-(pyrrolidin-1-ylmethyl)benzyl)imidazo[2,1-f][1,2,4]triazin-2-ol], for which the EC50 (QUANTI-BLUE assay (A1-A76)) was above 10000 nM.
Still for that read-out and setting: with `CCCCOc1nc(N)c2ncc(Cc3ccc(C4CCN(C)C4)cc3)n2n1` (stereo not shown) [Compound A66, 2-butoxy-7-(4-(1-methylpyrrolidin-3-yl)benzyl)imidazo[2,1-f][1,2,4]triazin-4-amine] the figure was 387 nM; with `CCCCNc1nc(N)c2ncc(Cc3ccc(CN4CCCC4)cc3)n2n1` [Compound A67, N2-butyl-7-(4-(pyrrolidin-1-ylmethyl)benzyl)imidazo[2,1-f][1,2,4]triazine-2,4-diamine], 585 nM.
For `Nc1nc(OCc2cccnc2)nn2c(Cc3ccc(CN4CCCC4)cc3)cnc12` [Compound A68, 2-(pyridin-3-ylmethoxy)-7-(4-(pyrrolidin-1-ylmethyl)benzyl)imidazo[2,1-f][1,2,4]triazin-4-amine], the EC50 (QUANTI-BLUE assay (A1-A76)) is above 10000 nM.
Same read-out and setting: the result for `Nc1nc(OCCCC(F)(F)F)nn2c(Cc3ccc(CN4CCCC4)cc3)cnc12` [Compound A69, 7-(4-(pyrrolidin-1-ylmethyl)benzyl)-2-(4,4,4-trifluorobutoxy)imidazo[2,1-f][1,2,4]triazin-4-amine] reads 1240 nM; that for `CCCCOc1nc(N)c2ncc(Cc3cccc(CN)c3)n2n1` [Compound A70, 7-(3-(aminomethyl)benzyl)-2-butoxyimidazo[2,1-f][1,2,4]triazin-4-amine], above 10000 nM; that for `CCCCOc1nc(N)c2ncc(Cc3ccc(CN4CCN(CCCO)CC4)cc3)n2n1` [Compound A71, 3-(4-(4-((4-amino-2-butoxyimidazo[2,1-f][1,2,4]triazin-7-yl)methyl)benzyl)piperazin-1-yl)propan-1-ol], 1170 nM.
The same measure, in the same setting: the result for `CCCCOc1nc(N)c2ncc(Cc3cnc(OC4CCNCC4)c(C)c3)n2n1` [Compound A72, 2-butoxy-7-((5-methyl-6-(piperidin-4-yloxy)pyridin-3-yl)methyl)imidazo[2,1-f][1,2,4]triazin-4-amine] reads 462 nM.
Same read-out and setting: with `CCCCOc1nc(N)c2ncc(C(O)c3cc(OC)ccn3)n2n1` (stereo not shown) [Compound A73, (4-amino-2-butoxyimidazo[2,1-f][1,2,4]triazin-7-yl)(4-methoxypyridin-2-yl)methanol] the figure was above 10000 nM.
Regarding `CCCCOc1nc(N)c2ncc(C(O)c3ccccn3)n2n1` (stereo not shown) [Compound A74, (4-amino-2-butoxyimidazo[2,1-f][1,2,4]triazin-7-yl)(pyridin-2-yl)methanol], the EC50 (QUANTI-BLUE assay (A1-A76)) is above 10000 nM.
Turning to `CCCCOc1nc(N)c2ncc(C(C)c3ccc(CN4CCCC4)cc3)n2n1` (stereo not shown) [Compound A75, 2-butoxy-7-(1-(4-(pyrrolidin-1-ylmethyl)phenyl)ethyl)imidazo[2,1-f][1,2,4]triazin-4-amine], the EC50 (QUANTI-BLUE assay (A1-A76)) is above 10000 nM.
Regarding `CCCCOc1nc(N)c2ncc(Cc3cnn(CC4CCCNC4)c3)n2n1` (stereo not shown) [Compound A76, 2-butoxy-7-((1-(piperidin-3-ylmethyl)-1H-pyrazol-4-yl)methyl)imidazo[2,1-f][1,2,4]triazin-4-amine], the EC50 (QUANTI-BLUE assay (A1-A76)) was above 10000 nM.
With `CCCCOc1nc(N)n2ncc(Cc3cccc(CN4CCCC4)c3)c2n1` [Compound C1, 2-butoxy-8-(3-(pyrrolidin-1-ylmethyl)benzyl)pyrazolo[1,5-a][1,3,5]triazin-4-amine], the EC50 (QUANTI-BLUE assay (C1-C6)) was above 10000 nM.
On the same count and under the same terms, with `CCCCOc1nc(N)n2ncc(Cc3ccc(CN4CCCC4)cc3)c2n1` [Compound C2, 2-butoxy-8-(4-(pyrrolidin-1-ylmethyl)benzyl)pyrazolo[1,5-a][1,3,5]triazin-4-amine] the figure was above 10000 nM.

By EC50 is commonly meant the concentration needed to bring the measured effect to its halfway point. The low end stands for an effect from little substance, the high end for a need for much substance.
